No end group written: not given here.
Experiments:
[1] = molecular target: MHC class I allele A*0101 (A1) (Homo sapiens, UniProt P04439, A114D/A174V/A182V/D101N/D185E/E176A/E190D/L180R/Q94H/R68K/S129P/T187R/V100A/V91M/W191G); experiment: iScore multi-parametric analysis, A*0101; assay type: binding; details: for iScore, MHC Class I Molecule A*0101: level of binding: >0.5, 0.25-0.5, <0.25
Experimental: (§1) Finally, multiparametric analysis is performed on the results from these assays and an iScore is generated. The iScore represents a measure of the overall quality of peptide-MHC binding, enabling candidate peptides to be ranked in order of binding quality and allowing rational prioritisation of peptides for functional cellular follow-up studies.
(§2) As part of the validation of the iTopia system, a panel of overlapping peptides derived from the CMV pp 65 protein were used and their binding properties for the A*0201 allele analysed. A number of T cell epitopes restricted by HLA A*0201 had already been identified (by more conventional methodologies) by other researchers for this protein. In the iTopia study, it was reported that an iScore of: >0.5 represented “good quality binding”; between 0.25 and 0.5 represented “medium quality binding”; and <0.25 represented “poor quality binding”. Six of the 20 peptides which gave a “good” iScore (>0.5) for A*0201, represented previously characterised CMV pp 65 A*0201 epitopes.
(§3) Each MHC class I allele has different binding properties and affinities for peptides which they bind. Therefore, information obtained with HLA A*0201 in which peptides are ranked as good, medium or poor binders using >0.5, 0.25-0.5 and <0.25 as thresholds is not necessarily transferable between alleles. Also, different proteins are likely to have distinct immunogenic profiles and the affinities between peptides and MHC class I molecules will be different between proteins. This may be particularly relevant in the case of self-antigens where immunogenicity is likely to be lower than in foreign proteins.
(§4) Multi-parametric analysis permits the integration of half-life and ED50 parameters in an integrated iScore. This reflects the capability of a peptide to reconstitute with MHC molecules in a stable complex, defining its overall level of binding i.e. the iScore value represents the overall quality of peptide-MHC binding and is used to rank candidate peptides as an indicator of functional relevance. The lead candidate epitopes for each allele are selected for cellular functional analysis to confirm their biological relevance.
(§5) The changes in gradient of the graphs in FIGS. 7 to 10 are indicated by a line which delineates the populations of iScores forming the basis of discrimination for further functional studies.

[2] = molecular target: MHC class I allele A*0301 (A3) (Homo sapiens, UniProt P04439); experiment: iScore multi-parametric analysis, A*0301; assay type: binding; details: for iScore, MHC Class I Molecule A*0301: level of binding: >0.5, 0.25-0.5, <0.25; for iScore (iTopia), A*0301: integrates half-life and ED50
Experimental: as §1, §2, §3, §4, §5

[3] = molecular target: MHC class I allele A*0201 (A2) (Homo sapiens, UniProt P04439, D140Y/D185E/D98H/E176V/E277Q/G131W/G231S/I119V/I121R/I166T/I218V/L300P/L318F/N151K/N90K/P208A/P217A/Q86G/Q94H/R138H/R169H/T345S); experiment: iScore multi-parametric analysis, A*0201; assay type: binding; details: level of binding: >0.5, 0.25-0.5, <0.25
Experimental: as §1, §2, §3, §4, §5

[4] = molecular target: MHC class I allele B*0702 (B7) (Homo sapiens, UniProt P01889); experiment: iScore multi-parametric analysis, B*0702; details: level of binding: >0.5, 0.25-0.5, <0.25
Experimental: as §1
As part of the validation of the iTopia system, a panel of overlapping peptides derived from the CMV pp 65 protein were used and their binding properties for the A*0201 allele analysed. A number of T cell epitopes restricted by HLA A*0201 had already been identified (by more conventional methodologies) by other researchers for this protein. In the iTopia study, it was reported that an iScore of: >0.5 represented “good quality binding”; between 0.25 and 0.5 represented “medium quality binding”; and <0.25 represented “poor quality binding”.
as §4

Sequence | iScore, MHC Class I Molecule A*0101 [1] | iScore, MHC Class I Molecule A*0301 [2] | iScore, MHC Class I Molecule A*0201 [3] | iScore, MHC Class I Molecule B*0702 [4] | iScore (iTopia), A*0301 [2] | iScore (iTopia), A*0101 ([1]; integrates half-life and ED50)
LQGLRRLEL [Peptide 105] | 0 | 0 | 0.114 | 0.119 |  | 
GLRRLELAS [Peptide 106] | 0 | 0 | 0.046 | 0 |  | 
LAVLPAGAF [Peptide 52] | 0 | 0 | 0.074 | 0.049 |  | 
YVSFRNLTH [Peptide 126] | 0 | 0.086 | 0 | 0.21 |  | 
TLAELQGLP [Peptide 139] | 0 | 0 | 0.083 | 0 |  | 
NQLAVLPAG [Peptide 51] | 0 | 0 | 0.22 | 0 |  | 
GLPHIRVFL [Peptide 142] | 0 | 0.319 | 1.39 | 0.075 | 0.319 | 
HMEGYHYRY [Peptide 198] | 0.357 | 0.189 | 0.24 | 0 | 0.189 | 0.357
RDACRDHME [Peptide 195] | 0 | 0 | 0.08 | 0 |  | 
LSHNPLADL [Peptide 75] | 0 | 0 | 0.095 | 0 |  | 
LDLSHNPLA [Peptide 74] | 0 | 0 | 0.226 | 0 |  | 
SSFSSSAPF [Peptide 20] | 0 | 0 | 0.037 | 0 |  | 
VLAQLPSLR [Peptide 115] | 0 | 0.023 | 0.113 | 0 |  | 
LVLLGWVSS [Peptide 12] | 0 | 0 | 0.122 | 0 |  | 
AVSAQPPLP [Peptide 26] | 0 | 0 | 0.062 | 0 |  | 
VFLGIVLAL [Peptide 179, VFLGIVLAL] | 0 | 0 | 0.606 | 0 |  | 

Sequence | iScore, MHC Class I Molecule A*0101 [1] | iScore, MHC Class I Molecule A*0301 [2] | iScore, MHC Class I Molecule A*0201 [3] | iScore, MHC Class I Molecule B*0702 [4] | iScore (iTopia), A*0301 [2] | iScore (iTopia), A*0101 ([1]; integrates half-life and ED50)
PPLAELAAL [Peptide 58, PPLAELAAL] | 0 | 0 | 0.075 | 0.145 |  | 
VFLDNNPWV [Peptide 145] | 0 | 0 | 0.239 | 0 |  | 
SPLVELILN [Peptide 87] | 0 | 0 | 0.094 | 0 |  | 
FARRPPLAE [Peptide 56] | 0 | 0 | 0.042 | 0 |  | 
KWMHNIRDA [Peptide 192] | 0 | 0 | 0.045 | 0 |  | 
KVLHNGTLA [Peptide 136] | 0 | 0 | 0.15 | 0 |  | 
GSRLDEVRA [Peptide 64] | 0 | 0 | 0.13 | 0 |  | 
MHNIRDACR [Peptide 193] | 0 | 0 | 0.093 | 0 |  | 
TSSASSFSS [Peptide 18] | 0 | 0 | 0.037 | 0 |  | 
SSAPFLASA [Peptide 22] | 0 | 0 | 0.389 | 0 |  | 
YEINADPRL [Peptide 202] | 0 | 0 | 0.077 | 0 |  | 
LPRDVLAQL [Peptide 113] | 0 | 0 | 0 | 0.305 |  | 
QTSYVFLGI [Peptide 177] | 0.027 | 0 | 0.127 | 0 |  | 
LAELAALNL [Peptide 59] | 0 | 0 | 0.72 | 0.074 |  | 
SNASVSAPS [Peptide 83] | 0 | 0 | 0.154 | 0 |  | 

— patent US8147838B2, “Peptide” (priority 2005, dated 2012)
